Tested on: CD-HFD fed C57BL/6J mice
Test: AMPK agonist A-769662 in CD-HFD-induced NASH, C57BL/6J mice
Type: in vivo
Protocol: FIGS. 4A-4L. Both an AMPK agonist and a caspase-6 inhibitor therapeutically improve liver damage. FIG. 4A-4I. C57BL/6J mice were fed CD-HFD for 6 weeks, followed by intraperitoneally injection of 25 mg/kg A-769662 or vehicle daily for 2 weeks while continuous CD-HFD. FIG. 4A. Liver sections stained as indicated: TUNEL and DAPI. In the merged image section, the different stains correspond to the grayscale shades as indicated in the single stained images to the left. Scale bar=50 μm. FIG. 4B. Quantification of TUNEL-positive nuclei per field in FIG. 4A. n=7. FIG. 4C-4E. Serum ALT (FIG. 4C), AST (FIG. 4D) and ALP (FIG. 4E). n=7. FIG. 4F. H&E and Sirius red staining of liver sections as indicated. Scale bar=100 μm. FIG. 4G. Quantification of liver fibrosis area (% of total area) in FIG. 4F. n=7. FIG. 4H. Liver hydroxyproline. n=8. FIG. 4I. Expression of Tgfb, Timp1, Col1a1, Col3a1, Pdgfa, Pdgfb, Pdgfra and Ddr2 in livers. n=8. *, P<0.05, Student's unpaired t test. FIGS. 4J-4L. Flox and LAKO mice were fed CD-HFD for 6 weeks, followed by intraperitoneally injection of 5 mg/kg VEID (SEQ ID NO: 71) or vehicle every other day for 2 weeks while continuous feeding. FIG. 4J. Liver sections stained as indicated (TUNEL and DAPI); in the merged image sections, the different stains correspond to the grayscale shades as indicated in the single stained images to the left. Scale bar=50 μm. FIG. 4K. Quantification of TUNEL-positive nuclei per field in FIG. 4J. n=5-6. FIG. 4L. Serum ALT. n=5-6. Mean±SEM. *, P<0.05, two-way ANOVA. FIG. 4 discloses “VEID” as SEQ ID NO: 71.
FIGS. 5A-5K. AMPK phosphorylates caspase-6 to inhibit its cleavage and activation. FIG. 5A. Primary hepatocytes were pretreated 40 μM A-769662 for 1 hr, then treated 30 μg/ml CHX and 50 ng/ml TNFα for 2 hrs. IB analysis of cell lysates. n=3. Mean±SD. *, P<0.05, two-way ANOVA. FIG. 5B. Primary hepatocytes were pretreated 40 μM A-769662 for 1 hr, then treated 250 μM BSA-conjugated palmitic acid (PA) for 2 hrs. Cell lysates were subject to caspase-6 activity assay. Mean±SD. *, P<0.05. FIG. 5C. Caspase-6 Ser^257 locates within AMPK substrate motif. FIG. 5C. discloses SEQ ID NOS 57-63, respectively, in order of appearance. FIG. 5D. In vitro kinase assay using recombinant caspase-6, and recombinant AMPKα1β1γ1 or AMPKα2β1γ1 active kinase. FIG. 5E. Alignment of caspase-6 sequence. FIG. 5E. discloses SEQ ID NOS 64-67, respectively, in order of appearance. FIG. 5F. HEK293T cells overexpressing caspase-6-myc WT, S^257A, S^257D or S^257E mutant were treated with 10 μg/ml CHX and 25 ng/ml TNFα for 2 hrs. IB analysis of cell lysates. FIGS. 5G-5J. C57BL/6J mice were fed CD-HFD for 6 weeks, followed by intraperitoneally injection of 25 mg/kg A-769662 or vehicle daily for 2 weeks while continuous CD-HI-D. Mice were sacrificed 6 hrs after last injection. FIG. 5G. IB analysis of liver lysates. n=5. FIG. 5H. Liver lysates were subject to caspase-6 activity assay. n=7. FIG. 5I. Liver sections stained as indicated therein (aCasp6 and DAPI); in the merged image sections, the different stains correspond to the grayscale shades as indicated in the single stained images to the left. Scale bar=50 μm. FIG. 5J. Quantification of aCasp6 staining per field in FIG. 5I. n=7. Mean±SEM. *, P<0.05, Student's unpaired t test. FIG. 5K. IB analysis of liver lysates from C57BL/6J mice fed ND or CD-HFD. Note: AMPK and pAMPK blots are the same as in FIG. 1B.
FIGS. 13A-13I. A-769662 improves liver damage through AMPK activation in hepatocytes in NASH. C57BL/6J mice were fed with CD-HFD for 8 weeks. After 6 weeks of CD-HFD feeding, mice were intraperitoneally injected with 25 mg/kg A-769662 or vehicle daily for 2 weeks along with continuous CD-HFD feeding. FIG. 13A. Schematic diagram of experimental design. FIG. 13B-13C. Body weight (FIG. 13B) and liver weight (FIG. 13C) of indicated mice. n=7. FIG. 13D. Measurement of liver triglyceride (TG) of indicated mice. n=7. FIG. 13E. […]

[1] = 25 mg/kg i.p. daily for 2 weeks, CD-HFD
[2] = 25 mg/kg i.p. daily for 2 weeks, CD-HFD, sacrificed 6 hrs after last injection
[3] = 25 mg/kg i.p. once per day for two weeks after 6 weeks CD-HFD

With `N#Cc1c(O)c2c(-c3ccc(-c4ccccc4O)cc3)csc2[nH]c1=O` [A-769662] the “hepatic fibrosis (Sirius red fibrosis area, liver hydroxyproline)” value (25 mg/kg i.p. daily for 2 weeks after 6 weeks CD-HFD) was “attenuated”, the “expression of Col1a1 in liver” value [1] was “significantly reduced” and the “expression of Col3a1 in liver” value [1] was “significantly reduced”. The “expression of Ddr2 in liver” value [1] was “without effect”, the “expression of Pdgfa in liver” value [1] was “significantly reduced” and the “expression of Pdgfb in liver” value [1] was “significantly reduced”. For the same compound, the “expression of Pdgfra in liver” value [1] was “significantly reduced”, the “expression of Tgfb in liver” value [1] was “without effect” and the “expression of inflammation marker gene Adgre1 in liver” value [1] was “without effect”. For the same compound, the “expression of inflammation marker gene Ccl2 in liver” value [1] was “without effect”, the “aCasp6 (active caspase-6) staining of liver sections” value (25 mg/kg i.p. daily for 2 weeks, CD-HFD-induced NASH) was “decreased” and the “caspase-6 activity in vivo (liver lysates)” value [2] was “decreased”. The “procaspase-6 Ser257 phosphorylation (IB of liver lysates)” value [2] was “significantly increased”, the “hepatic TG” value [3] was “no effect” and the “liver damage (serum ALT, AST, ALP)” value [3] was “improved”. For the same compound, the “number of apoptotic cells (TUNEL-positive nuclei per field)” value [3] was “significantly reduced”.

— patent publication US20220184172A1, “AMPK/CASPASE-6 AXIS CONTROLS LIVER DAMAGE IN NONALCOHOLIC STEATOHEPATITIS” (The Regents of the University of California, priority 2019, published 2022)
